The values that follow come from patent publication US12643879B2, “Functionalized heterocyclic compounds as modulators of stimulator of interferon genes (STING)” (RYVU THERAPEUTICS S.A., priority 2019, dated 2026).

Counter-ions that a name gives are not always drawn.

Test [1] concerns interferon regulatory factor (IRF) pathway in THP-1 dual cells. The experiment in a line: THP-1 Dual reporter assay, IRF pathway (luciferase). Type of test: cell-based. The settings on record: Homo sapiens, THP1-Dual; 18 h stimulation, luminescence; read-out: THP1 Dual EC50 (μM) IRF. The procedure:
(§1) Compounds of the present invention were tested for their activity using THP-1 dual cells (Invivogen, cat no. thpd-nfis) allowing for simultaneous study of NF-κB pathway and the interferon regulatory factor (IRF) pathway. THP-1 dual cells contain luciferase reporter gene under the control of an ISG54 (interferon-stimulated gene) minimal promoter in conjunction with five interferon-stimulated response elements and a secreted embryonic alkaline phosphatase reporter gene under the control an IFN (interferon)-β minimal promoter fused to five copies of the NF-κB consensus transcriptional response element with three copies of the c-Rel binding site. Following 18 h of stimulation with STING agonist, medium was collected and transferred onto fresh cell culture plate. To verify activity of the IRF pathway, luminescence activity was measured with standard laboratory plate reader immediately after addition 10 μl of the medium to 40 or 50 μl of luminescence reagent (Invivogen, cat. No. rep-qlc2). To verify activity of NF-κB pathway, 10 or 20 μl of the medium was mixed with 80 μl of a detection medium (Invivogen, cat. No. rep-qb2) and incubated for 1 or 2 hours at 37° C. in a humidified atmosphere containing 5% CO2. Next, absorbance at 630 or 655 nm was recorded using standard laboratory plate reader.
(In a reporter assay the amount or activity of a reporter protein is the signal.)

Test [2] has as its system NF-κB pathway in THP-1 dual cells. The test can be described thus: THP-1 Dual reporter assay, NF-κB pathway (SEAP). Type of test: cell-based. The settings on record: Homo sapiens, THP1-Dual; 18 h stimulation, absorbance at 630 or 655 nm; read-out: THP1 Dual EC50 (μM) NFkB. The procedure:
as §1

By EC50 is commonly meant the midpoint of the concentration-response curve.

With `Cc1ccc(N2CCC[C@H](N(Cc3ccnc(C)c3)Cc3cn(C4CC4)c4cc(N5CCC6C(CCN6C(=O)OCc6ccc(NC(=O)[C@H](CCCNC(N)=O)NC(=O)[C@@H](NC(=O)CCOCCOCCOCCN=[N+]=[N-])C(C)C)cc6)C5)c(F)cc4c3=O)C2)cn1` (stereo partly drawn) [Example 68A, {4-[(2S)-2-[(2S)-2-(3-{2-[2-(2-azidoethoxy)ethoxy]ethoxy}propanamido)-3-methyl-butanamido]-5-(carbamoylamino)pentanamido]phenyl}methyl 5-[1-cyclopropyl-6-fluoro-3-({[(3S)-1-(6-methylpyridin-3-yl)piperidin-3-yl][(2-methylpyridin-4-yl)methyl]amino}methyl)-4-oxo-1,4-dihydroquinolin-7-yl]-octahydro-1H-pyrrolo[3,2-c]pyridine-1-carboxylate], the EC50 was 1 to 10 µM in test [1] and > 10 µM in test [2].
For `Cc1ccc(N2CCC[C@H](N(Cc3ccnc(C)c3)Cc3cn(C4CC4)c4cc(N5CC[C@@H](N(C)C(=O)CCOCCOCCOCCN)C5)c(F)cc4c3=O)C2)cn1` [Example 55D, 3-{2-[2-(2-aminoethoxy)ethoxy]ethoxy}-N-[(3R)-1-[1-cyclopropyl-6-fluoro-3-({[(3S)-1-(6-methylpyridin-3-yl)piperidin-3-yl][(2-methylpyridin-4-yl)methyl]amino}methyl)-4-oxo-1,4-dihydroquinolin-7-yl]pyrrolidin-3-yl]-N-methylpropanamide formate] the same measures were 1 to 10 µM and 1 to 10 µM.
Turning to `Cc1ccc(N2CCC[C@H](N(Cc3ccnc(C)c3)Cc3cn(CCO)c4ccccc4c3=O)C2)cn1` [Example 41, 1-(2-hydroxyethyl)-3-({[(3S)-1-(6-methylpyridin-3-yl)piperidin-3-yl][(2-methylpyridin-4-yl)methyl]amino}methyl)-1,4-dihydroquinolin-4-one], the EC50 in test [1] and in test [2] was 1 to 10 µM each time.
For `Cc1cc(CN(Cc2cn(C(C)C)c3cc(N4CC[C@@H](O)C4)ccc3c2=O)[C@H]2CCCN(c3cn[nH]c3)C2)ccn1` [Example 69, 7-[(3R)-3-hydroxypyrrolidin-1-yl]-3-({[(2-methylpyridin-4-yl)methyl][(3S)-1-(1H-pyrazol-4-yl)piperidin-3-yl]amino}methyl)-1-(propan-2-yl)-1,4-dihydroquinolin-4-one], the EC50 in test [1] and in test [2] was 1 to 10 µM in each case.
Regarding `Cc1ccc(N2CCC[C@H](N(Cc3ccnc(C)c3)Cc3cn(C4CC4)c4cc(N5CC[C@@H](N(C)C(=O)CCOCCOCCOCCNC(=O)OC(C)(C)C)C5)c(F)cc4c3=O)C2)cn1` [Example 55C, tert-Butyl N-(2-{2-[2-(2-{[(3R)-1-[1-cyclopropyl-6-fluoro-3-({[(3S)-1-(6-methylpyridin-3-yl)piperidin-3-yl][(2-methylpyridin-4-yl)methyl]amino}methyl)-4-oxo-1,4-dihydroquinolin-7-yl]pyrrolidin-3-yl](methyl)carbamoyl}ethoxy)ethoxy]ethoxy}ethyl)carbamate], the half-maximal effective concentration (EC50) in test [1] and in test [2] was < 1 µM in each case.
For the compound `Cc1ccc(N2CCC[C@H](N(Cc3ccnc(C)c3)Cc3cn(C4CC4)c4cc(OCCNC(=O)OCc5ccc(NC(=O)[C@H](CCCNC(N)=O)NC(=O)[C@@H](NC(=O)CCOCCOCCOCCN=[N+]=[N-])C(C)C)cc5)c(F)cc4c3=O)C2)cn1` [Example 10A, {4-[(2S)-2-[(2S)-2-(3-{2-[2-(2-azidoethoxy)ethoxy]ethoxy}propanamido)-3-methyl-butanamido]-5-(carbamoylamino)pentanamido]phenyl}methyl N-(2-{[1-cyclopropyl-6-fluoro-3-({[(3S)-1-(6-methylpyridin-3-yl)piperidin-3-yl][(2-methylpyridin-4-yl)methyl]amino}methyl)-4-oxo-1,4-dihydroquinolin-7-yl]oxy}ethyl)carbamate], the EC50 in test [1] and in test [2] was > 10 µM in each case.
Regarding `Cc1ccc(N2CCC[C@H](N(Cc3ccnc(C)c3)Cc3cn(C4CC4)c4cc(N5CC[C@H](N)C(F)(F)C5)c(F)cc4c3=O)C2)cn1.Cl` (single isomer, unassigned) [Example 57, 7-[(4S)-4-amino-3,3-difluoropiperidin-1-yl]-1-cyclopropyl-6-fluoro-3-({[(3S)-1-(6-methylpyridin-3-yl)piperidin-3-yl][(2-methylpyridin-4-yl)methyl]amino}methyl)-1,4-dihydroquinolin-4-one], the EC50 in test [1] and in test [2] was < 1 µM each time.
In the case of `Cc1ccc(N2CCC[C@H](N(Cc3ccnc(C)c3)Cc3cn(C4CC4)c4cc(-c5cnn(CCO)c5)c(F)cc4c3=O)C2)cn1` [Example 62, 1-Cyclopropyl-6-fluoro-7-[1-(2-hydroxyethyl)-1H-pyrazol 4-yl]-3-({[(3S)-1-(6-methylpyridin-3-yl)piperidin-3-yl][(2-methylpyridin-4-yl)methyl]amino}methyl)-1,4-dihydroquinolin-4-one], the half-maximal effective concentration (EC50) in test [1] and in test [2] was < 1 µM in each case.
`C#CCOCCOCCOCCOCCOCCC(=O)Nc1ccc(COC(=O)N(C)[C@H]2CCN(c3cc4c(cc3F)c(=O)c(CN(Cc3ccnc(C)c3)[C@H]3CCCN(c5ccc(C)nc5)C3)cn4C3CC3)C2)cc1` [Example 58A, [4-(4,7,10,13,16-pentaoxanonadec-18-ynamido)phenyl]methyl N-[(3S)-1-[1-cyclopropyl-6-fluoro-3-({[(3S)-1-(6-methylpyridin-3-yl)piperidin-3-yl][(2-methylpyridin-4-yl)methyl]amino}methyl)-4-oxo-1,4-dihydroquinolin-7-yl]pyrrolidin-3-yl]-N-methylcarbamate]: the EC50 in test [1] and in test [2] was < 1 µM each time.
For `Cc1cc(CN(Cc2cn(C3CC3)c3cc(OCCO)c(F)cc3c2=O)[C@H]2C[C@H](F)CN(c3cccnc3)C2)ccn1` [Example 89, 1-cyclopropyl-6-fluoro-3-({[(3S,5S)-5-fluoro-1-(pyridin-3-yl)piperidin-3-yl][(2-methylpyridin-4-yl)methyl]amino}methyl)-7-(2-hydroxyethoxy)-1,4-dihydroquinolin-4-one hydrochloride], the concentration for a half-maximal effect (EC50) in test [1] and in test [2] was < 1 µM each time.
As to `Cc1ccc(N2CCC[C@H](N(Cc3ccnc(C)c3)Cc3cn(C)c4cc(N5CC[C@@H](N)C(F)(F)C5)ccc4c3=O)C2)cn1` (single isomer, unassigned) [Example 50], the EC50 in test [1] and in test [2] was < 1 µM each time.
In the case of `C#CCOCCOCCOCCOCCOCCC(=O)Nc1ccc(CNC(=O)O[C@H]2CCCN(c3cc4c(cc3F)c(=O)c(CN(Cc3ccnc(C)c3)[C@H]3CCCN(c5ccc(C)nc5)C3)cn4C3CC3)C2)cc1` [Example 31B, (3S)-1-[1-cyclopropyl-6-fluoro-3-({[(3S)-1-(6-methylpyridin-3-yl)piperidin-3-yl][(2-methylpyridin-4-yl)methyl]amino}methyl)-4-oxo-1,4-dihydroquinolin-7-yl]piperidin-3-yl N-{[4-(4,7,10,13,16-pentaoxanonadec-18-ynamido)phenyl]methyl}carbamate], the EC50 in test [1] and in test [2] was < 1 µM each time.
As to `C#CCOCCOCCOCCOCCOCCC(=O)Nc1ccc(COC(=O)N(C)[C@@H]2CCN(c3cc4c(cc3F)c(=O)c(CN(Cc3ccnc(C)c3)[C@H]3CCCN(c5ccc(C)nc5)C3)cn4C3CC3)C2)cc1` [Example 55A], the EC50 in test [1] and in test [2] was < 1 µM in each case.
